Experimental data from patent US20190031717A1, “MULTI-FUNCTIONAL FUSION POLYPEPTIDE, PREPARATION METHOD THEREOF, AND APPLICATION OF SAME” (NANJING ANJI BIOLOGICAL TECHNOLOGY CO., LTD, priority 2016, published 2019).

Columns and labels:
Chlamydia pneumoniae = experiment: Mouse pneumonia model, chlamydia; format: in vivo, BALB/C mice; parameters: concentration or dose not given beside the values; details: mean ± SD
Procedure: (§1) The mouse pneumonia model was successfully established by the nose-drop method. To build the mouse pneumonia model, BALB/C mice with a body mass of 16-22 g were selected and anesthetized pneumonia chain was prepared after anesthesia with ether on day 0, day 1, and day 2. Staphylococcal fluid, adenovirus concentrate, Mycoplasma pneumoniae, Chlamydia pneumoniae, protozoa, and pneumonia fungi were slowly dripped into the nasal cavity of the mice, so that they enter the tracheobronchial. During the operation process, care was exercised to prevent bacterial fluid from flowing into the esophagus, which leads to inactivation the bacterial fluid. After successful model establishment, the polypeptides of the present invention were administered, and the results were shown in Table 5. […] The results were expressed in average value±standard deviation.

Staphylococcal fluid = experiment: Mouse pneumonia model, bacterial; format: in vivo, BALB/C mice; parameters: concentration or dose not given beside the values; details: mean ± SD
Procedure: as §1

[1] = system: Pneumonia caused by lung infection; experiment: Mouse pneumonia model, pneumonia caused by lung infection; format: in vivo, BALB/C mice; parameters: concentration or dose not given beside the values; details: mean ± SD
Procedure: as §1

Thyroid cancer = experiment: MTT assay, tumor cells; format: cell-based, human; parameters: concentration or dose not given beside the values; details: 48 hours, mean ± SD
Procedure: (§2) A variety of human tumor cells were cultured in a 37° C., 5% (volume fraction) CO2 incubator to a density of 90% or more, collected by trypsinization, resuspended in a culture medium and counted under a microscope, and the cells were harvested. The concentration was adjusted to 2.0×10^4 cells/mL, the cell suspension was inoculated into a 96-well plate at 100 μL per well and cultured overnight at 37° C. in a 5% (volume fraction) CO2 incubator. After the cells were completely adhered, the polypeptides of the present invention were added as drug-administered groups, and a culture solution containing no drug was used as a blank control group, and the culture solution was diluted to each predetermined concentration. Each dilution was separately added to a 96-well plate at 100 μL per well and incubated for 48 hours at 37° C. in a 5% (volume fraction) CO2 incubator. 20 μL of 5 mg/mL MTT was added to each well of a 96-well plate and incubation was continued for 4 h. The medium was aspirated and dissolved in 100 μL of DMSO per well. The absorbance was measured with a microplate reader at a detection wavelength of 570 nm and a reference wavelength of 630 nm, and the growth inhibition rate was calculated as follows: tumor growth inhibition rate (%)=(1−absorbance value of the administered group/unadministered group absorbance value)×100%, and the experiment was repeated 3 times independently. The results obtained from the test were expressed as mean±standard deviation, and the tumor growth inhibition rate of the unadministered group was 0. The results in Table 7 indicate that the polypeptides of the present invention have a significant inhibitory effect on the growth of various tumors (FIG. 6).

Ovarian cancer = experiment: MTT assay, tumor cells; format: cell-based, human; parameters: concentration or dose not given beside the values; details: 48 hours, mean ± SD
Procedure: as §2

Hemangioma = experiment: MTT assay, tumor cells; format: cell-based, human; parameters: concentration or dose not given beside the values; details: 48 hours, mean ± SD
Procedure: as §2

Pancreatic cancer = experiment: MTT assay, tumor cells; format: cell-based, human; parameters: concentration or dose not given beside the values; details: 48 hours, mean ± SD
Procedure: as §2

Uterine cancer = experiment: MTT assay, tumor cells; format: cell-based, human; parameters: concentration or dose not given beside the values; details: 48 hours, mean ± SD
Procedure: as §2

Esophageal cancer = experiment: MTT assay, tumor cells; format: cell-based, human; parameters: concentration or dose not given beside the values; details: 48 hours, mean ± SD
Procedure: as §2

Gastric cancer = experiment: MTT assay, tumor cells; format: cell-based, human; parameters: concentration or dose not given beside the values; details: 48 hours, mean ± SD
Procedure: as §2

Bladder Cancer = experiment: MTT assay, tumor cells; format: cell-based, human; parameters: concentration or dose not given beside the values; details: 48 hours, mean ± SD
Procedure: as §2

sarcoma = experiment: MTT assay, tumor cells; format: cell-based, human; parameters: concentration or dose not given beside the values; details: 48 hours, mean ± SD
Procedure: as §2

Colorectal cancer = experiment: MTT assay, tumor cells; format: cell-based, human; parameters: concentration or dose not given beside the values; details: 48 hours, mean ± SD
Procedure: as §2

Cervical cancer = experiment: MTT assay, tumor cells; format: cell-based, human; parameters: concentration or dose not given beside the values; details: 48 hours, mean ± SD
Procedure: as §2

Head and neck cancer = experiment: MTT assay, tumor cells; format: cell-based, human; parameters: concentration or dose not given beside the values; details: 48 hours, mean ± SD
Procedure: as §2

Kidney cancer = experiment: MTT assay, tumor cells; format: cell-based, human; parameters: concentration or dose not given beside the values; details: 48 hours, mean ± SD
Procedure: as §2

Prostate cancer = experiment: MTT assay, tumor cells; format: cell-based, human; parameters: concentration or dose not given beside the values; details: 48 hours, mean ± SD
Procedure: as §2

Brain tumor = experiment: MTT assay, tumor cells; format: cell-based, human; parameters: concentration or dose not given beside the values; details: 48 hours, mean ± SD
Procedure: as §2

Breast cancer = experiment: MTT assay, tumor cells; format: cell-based, human; parameters: concentration or dose not given beside the values; details: 48 hours, mean ± SD
Procedure: as §2

Melanoma = experiment: MTT assay, tumor cells; format: cell-based, human; parameters: concentration or dose not given beside the values; details: 48 hours, mean ± SD
Procedure: as §2

Liver cancer = experiment: MTT assay, tumor cells; format: cell-based, human; parameters: concentration or dose not given beside the values; details: 48 hours, mean ± SD
Procedure: as §2

adenovirus concentrate = experiment: Mouse pneumonia model, viral; format: in vivo, BALB/C mice; details: mean ± SD
Procedure: as §1

Substance: Ile-Val-Arg-Arg-Ala-Asp-Arg-Ala-Ala-Val-Pro-Gly-Gly-Gly-Gly-Pro-(D-Pyr)-(D-Cys)-Bip-Arg-Gly-Glu-Gly-Gly-Gly-Gly-Arg-Gly-Asp [Polypeptide II]
- Inhibitory Effects on Various Pulmonary Infections (Chlamydia pneumoniae): 46.02 ± 13.12%
- Inhibitory Effects on Various Pulmonary Infections (Staphylococcal fluid): 43.43 ± 12.38%
- Inhibitory Effects on Various Pulmonary Infections [1]: 50.81 ± 14.48%
- tumor growth inhibition rate, MTT Assay (Thyroid cancer): 61.18 ± 14.53%
- tumor growth inhibition rate, MTT Assay (Ovarian cancer): 88.74 ± 21.07%
- tumor growth inhibition rate, MTT Assay (Hemangioma): 84.45 ± 23.67%
- tumor growth inhibition rate, MTT Assay (Pancreatic cancer): 71.93 ± 20.82%
- tumor growth inhibition rate, MTT Assay (Uterine cancer): 64.54 ± 21.82%
- tumor growth inhibition rate, MTT Assay (Esophageal cancer): 64.28 ± 15.27%
- tumor growth inhibition rate, MTT Assay (Gastric cancer): 63.41 ± 18.79%
- tumor growth inhibition rate, MTT Assay (Bladder Cancer): 50.68 ± 12.04%
- tumor growth inhibition rate, MTT Assay (sarcoma): 64.42 ± 15.30%
- tumor growth inhibition rate, MTT Assay (Colorectal cancer): 83.25 ± 19.77%
- tumor growth inhibition rate, MTT Assay (Cervical cancer): 62.34 ± 24.94%
- tumor growth inhibition rate, MTT Assay (Head and neck cancer): 47.44 ± 11.27%
- tumor growth inhibition rate, MTT Assay (Kidney cancer): 58.56 ± 17.64%
- tumor growth inhibition rate, MTT Assay (Prostate cancer): 78.96 ± 22.49%
- tumor growth inhibition rate, MTT Assay (Brain tumor): 66.81 ± 15.87%
- tumor growth inhibition rate, MTT Assay (Breast cancer): 89.43 ± 21.24%
- tumor growth inhibition rate, MTT Assay (Melanoma): 55.55 ± 13.19%
- tumor growth inhibition rate, MTT Assay (Liver cancer): 71.24 ± 16.92%
- Inhibitory Effects on Various Pulmonary Infections (adenovirus concentrate): 57.35 ± 16.34%
